The source of these data is ChEMBL document CHEMBL4680214, “Fluorinated derivatives of 2-phenyl-3-hydroxy-4(1H)-quinolinone as tubulin polymerization inhibitors” (Eur J Med Chem, 2020).

One test has as its system BJ. Kind of test: Cytotoxicity against human BJ cells incubated for 72 hrs by MTS assay. It is filed as cell-based. A general note: Tetrazolium dyes change colour on reduction, which living cells bring about.
The subject of test [1] is HCT-116. Briefly: Cell cycle arrest in human HCT-116 cells assessed as accumulation at S phase at 5 times IC50 measured after 24 hrs by propidium iodide staining based flow cytometry (reference value: 37.7%). It is filed as functional.
For test [2], the system named is CCRF-CEM. Briefly: Cell cycle arrest in human CCRF-CEM cells assessed as accumulation at G2/M phase at 5 times IC50 measured after 24 hrs by propidium iodide staining based flow cytometry (reference value: 22.6%). It is filed as functional. A general note: In flow cytometry, cells or beads pass a laser one at a time.
The subject of test [3] is CCRF-CEM. Briefly: Cell cycle arrest in human CCRF-CEM cells assessed as accumulation at sub-G1 phase at IC50 measured after 24 hrs by propidium iodide staining based flow cytometry (reference value: 2%). The class given is functional.
Test [4] is filed under the species Sus scrofa. Kind of test: Inhibition of porcine brain tubulin polymerization assessed as Vmax of polymerization at 10 umol/L measured at 60 secs interval for 30 mins by turbidometric method. As to conditions: dose 10.0 µmol/L.
For test [5], the species on record is Sus scrofa. Briefly: Inhibition of porcine brain tubulin polymerization at 10 umol/L measured at 60 secs interval for 30 mins by turbidometric method. As to conditions: dose 10.0 µmol/L.
The subject of test [6] is HCT-116. Kind of test: Cell cycle arrest in human HCT-116 cells assessed as accumulation at G2/M phase at 5 times IC50 measured after 24 hrs by propidium iodide staining based flow cytometry (reference value: 27.0%). It is filed as functional.
Test [7] has as its system CCRF-CEM. Briefly: Cell cycle arrest in human CCRF-CEM cells assessed as polyploid cell population at 2 times IC50 measured after 6 hrs by propidium iodide staining based flow cytometry (reference value: 11.3%). The class given is functional.
Test [8] deals with CCRF-CEM. Kind of test: Cell cycle arrest in human CCRF-CEM cells assessed as phosphorylation of histone H3 at Ser10 at IC50 measured after 24 hrs by propidium iodide staining based flow cytometry (reference value: 2.0%). The class given is functional.
Test [9] deals with HCT-116. Briefly: Cell cycle arrest in human HCT-116 cells assessed as BrdU incorporation at IC50 measured after 24 hrs by propidium iodide/immunostaining based flow cytometry (reference value: 48.6%). It is filed as functional. For orientation: Incorporation of labelled thymidine or its analogues reports DNA synthesis.
The subject of test [10] is CCRF-CEM. Kind of test: Cell cycle arrest in human CCRF-CEM cells assessed as polyploid cell population at 2 times IC50 measured after 12 hrs by propidium iodide staining based flow cytometry (reference value: 11.3%). The class given is functional.
The subject of test [11] is CCRF-CEM. Kind of test: Cell cycle arrest in human CCRF-CEM cells assessed as accumulation at sub-G1 phase at 5 times IC50 measured after 24 hrs by propidium iodide staining based flow cytometry (reference value: 2%). It is filed as functional.

The source made the active and inactive calls. No cut-off for these calls is given here.

What is called IC50 is the concentration that inhibits the measured activity by half. Consider `O=c1c(O)c(-c2ccccc2)[nH]c2cc(F)c(Sc3ccccc3)cc12`, for which the half-inhibitory concentration (IC50) with BJ is > 50 µM. Besides, the Activity is listed as 33.2% in the test on HCT-116 [1]; 20.2% in the test on CCRF-CEM [2]; 5.8% in the test with CCRF-CEM [3]; 64.1% with HCT-116 [6]; 10.5% in the test on CCRF-CEM [7]; 9.4% in the test with CCRF-CEM [8]. The Activity in the test with HCT-116 [9] came out at 42.1%; in the test with CCRF-CEM [10] it was 12.4%; in the test with CCRF-CEM [11], 29.7%. In addition, the Vmax (milli optical density/minute) in the test listed under Sus scrofa [4] worked out at 8.3. Also, the inhibition result in the test listed under Sus scrofa [5] was “Active”.
